Numbered stars: 1 amine (or outer) side, 2 acyl side, 3 side chain; on linkers, the order of the positions; unused ones are H or OH. Square brackets hold non-standard residues; d marks the D form. Peptide text beside a SMILES is read from it. * marks the point of attachment. X1 = O=C1NC2CSC(CCCCC(=O)*)C2N1; X2 = CC(O)CC(N[*:1])C(=O)[*:2]; Abu = CC[CH](N)C(=O)O
Columns and labels:
[1] = test system: fetal rat cortical neurons; assay: NMDA-induced damage to neurons, MTT cell survival and LDH release; format: cell-based; conditions: NMDA 250 μmol/L, 60 min; EPO 5 μg/ml, T3 100 μg/ml
Description: Based on the above results, the primary cortical neurons were administered with 250 μmol/L NMDA.
1. Selecting well-grown neurons cultured for 7-14 days, and adding EPO (5 μg/ml), the EPO-derived peptide of the present invention (100 μg/ml) respectively;
2. Adding NMDA to achieve a final concentration of 250 μmol/L, and culturing in an incubator at 37° C. for 60 min;
3. Discarding the culture medium, and measuring the cell survival rate (MTT kit, Beyotime Biotechnology Co., Ltd.) and LDH lactic dehydrogenase release rate (LDH kit, Promega Corporation) of the cells in each group.

[2] = test system: fetal rat cortical neurons; assay: Oxygen-glucose deprivation (OGD)-induced damage to neurons, MTT cell survival and LDH release; format: cell-based; conditions: 3 h hypoxia (1% oxygen), then 4 h with EPO 5, 100 μg/ml or T3 5, 50, 100 μg/ml
Description: According to the methods from literatures, the fetal rat cortical neurons were cultured in the serum-free culture medium of Neurobasal® Medium (purchased from the market). After incubation in a 5% CO2 incubator for 7-14 days, the neurons were specifically labeled: microtubule-associated protein-2 (MAP-2) was stained and identified, and the nuclei were labeled with the fluorescent dye of 4, 6-diamidino-2-phenylindole (DAPI).
The fetal rat cortical neurons of primary culture were cultured in a sugar-free DMED culture medium. After being placed in the hypoxic incubator to damage neurons for 3 h, the culture medium were replaced with serum-free culture medium. EPO, the novel EPO-derived peptide (T3) and the culture medium were added to different groups respectively, and the groups were cultured in a 5% CO2 normal oxygen incubator for 4 h. Then the LDH release rate and MTT cell survival rate of each group were measured.
1. Selecting well-grown neurons cultured for 7-14 days, aspirating the old culture medium of neurons, washing 3 times with PBS buffer, and then adding sugar-free DMEM:
2. Placing the culture plates in an anoxic incubator at 37° C., and setting the oxygen concentration therein as 1%.
3. Removing the culture plates after 3 h of hypoxia, aspirating the sugar-free medium, replacing it with the original serum-free maintenance medium, adding EPO (5 μg/ml, 100 μg/ml), the EPO-derived peptide of the present invention (5 μg/ml, 50 μg/ml, 100 μg/ml), and the culture medium respectively, and placing in an 5% CO2 incubator with 95% air at 37° C. for 4 h.
4. After 4 h, measuring the cell survival rate (MTT kit, Beyotime Biotechnology Co., Ltd.) and LDH lactic dehydrogenase release rate (LDH kit, Promega Corporation) of the cells in each group.

[3] = test system: pilocarpine-induced seizures; assay: Pilocarpine-induced epilepsy model: seizure latency; format: in vivo, C57/BL6 mice; conditions: for seizure latency / seizure latency versus saline and solvent groups: EPO 50 μg/kg; for seizure latency: T3 500 μg/kg i.p. 1 day, 4 h, 2 h before pilocarpine 350 mg/kg; for seizure latency versus saline and solvent groups: T3 500 μg/kg, difference statistically significant
Description: C57/BL6 mice (male, 20-25 g, 24 mice, purchased from Shanghai JieSiJie Laboratory Animal Co., Ltd) were divided into physiological saline group (Saline, 0.2 ml/mouse), solvent group (ACN+Milliq, 0.2 ml/mouse), EPO group (50 μg/kg), novel EPO-derived peptide group (T3, 500 μg/kg), 6 mice each group. The drugs were administered 1 day, 4 h, and 2 h before pilocarpine-induced epilepsy, and the seizure latency and severity of seizures were recorded.
1. Intraperitoneally administering the mice 1 day, 4 h, 2 h prior to the injection of pilocarpine;
2. Intraperitoneally injecting scopolamine (1 mg/kg) 30 min in advance to reduce the peripheral cholinergic response induced by pilocarpine;
3. Intraperitoneally injecting pilocarpine (350 mg/kg), recording the time of administration, time of onset, severity of seizure;
Behavioral grading of epilepsy continuing status using the Racine scale:
Grade I: staring, mouth and facial movements;
Grade II: nodding, single jerks;
Grade III: unilateral/bilateral forelimb clonus
Grade V: loss of posture, jumping repeatedly, falling, tonic clonic seizure.

[4] = test system: mouse model of transient middle cerebral artery occlusion; assay: Mouse model of transient middle cerebral artery occlusion: neurobehavioral scores, cerebral infarction volume; format: in vivo, ICR mice; conditions: for cerebral infarction volume versus control group / neurobehavioral scores versus control group: EPO 50 μg/kg, T3 500 μg/kg at reperfusion; for Neurobehavioral scores / Cerebral infarction volumes: third day after surgery; for Neurobehavioral scores: 60 min ischemia then reperfusion; for Cerebral infarction volumes: cresyl violet sections
Description: ICR mice (male, 25-30 g, 18 mice, purchased from Shanghai Slac Laboratory Animal Co., Ltd.) were divided into control group (ACN+Millq, 0.2 ml/mouse), EPO group (50 μg/kg), novel EPO-derived peptide group (T3, 500 μg/kg), 6 mice/group. Mice in each group were operated with suture-occluded method in mice to establish middle cerebral artery occlusion model, the mice were anesthetized by intraperitoneal injection of ketamine hydrochloride and fixed on the operating table. After 60 min of ischemia, the sutures were removed to reperfuse, and the solvents (ACN+Milliq), EPO, and T3 were administered separately. Neurobehavioral scores were measured on the third day after surgery, and then the mice were sacrificed to reperfuse and the brains were harvested to make sections stained with cresyl violet. The results were shown in FIG. 7A, FIG. 7B and FIG. 7C.
1. Disinfecting the neck, making an incision at the center of the neck, exposing the left common carotid artery with a microsurgical forceps under a stereo microscope, separating the internal carotid artery, external carotid artery and pterygopalatine artery, ligating the common carotid artery and internal carotid artery; making two knots on the external carotid artery with two filaments, wherein one at the distal part of the external carotid artery is a dead knot, and one at the proximal part of the external carotid artery is a slipknot;
2. Making a small incision on the external carotid artery with venus scissors, having about half the size of the blood vessel;
3. Cutting the external carotid artery, and carefully reversely inserting the suture from the external carotid artery into the bifurcation of the external carotid artery and internal carotid artery, then loosening the knot on the internal carotid artery, inserting the suture into the internal carotid artery until it encounters a slight resistance, that is, the origin of the middle cerebral artery, and putting the mouse back into the cage.
4. Anesthetizing and fixing again after 60 min of cerebral ischemia, and re-exposing the common carotid artery, internal carotid artery and suture parts under a stereo microscope;
5. Loosening the filament ligated to the proximal part of the external carotid artery for fixing the suture with the microsurgical forceps, slowly withdrawing the suture, and ligating the stump of the external carotid artery, loosening the filament ligated to the common carotid artery to achieve reperfusion;
6. Suturing the incision of the neck, disinfecting the area, and putting the mouse back in the cage for observation.

[5] = test system: red blood cells; assay: Hematopoietic experiment: red blood cell counts after daily intraperitoneal injection; format: in vivo, C57/BL6 mice; conditions: for RBC generation (erythrocyte counts): tail vein blood; for red blood cell counts compared with the other groups (Saline, ACN+Milliq): as the number of administrations increases
Description: 18-22 g of male C57/BL6 mice (purchased from Shanghai SIPPR-BK Laboratory Animal Co., Ltd., 50 mice in total and 10 mice for each group) were used. The five groups were injected intraperitoneally with EPO (50 μg/kg), EPO-derived peptide of the present invention (50 μg/kg), EPO-derived peptide of the present invention (250 μg/kg), physiological saline (0.1 m/mouse), and solvent (ACN+Milliq, 0.1 m/mouse) once a day, respectively. On the 3th, 7th, and 13th days, the blood samples were collected from the tail vein and measured by a ProCyte Dx automatic blood cell analyzer to obtain the numbers of red blood cells thereof.

[6] = Blood-brain barrier penetration experiment: biotin in cerebrospinal fluid; format: in vivo, mouse; conditions: mice, biotin detected in cerebrospinal fluid
Description: The biotin-labeled novel EPO-derived peptide was injected intraperitoneally. 5-15 μl of mouse cerebrospinal fluid was taken under general anesthesia 1 h after administration. The biotin assay kit was used to detect whether the biotin-labeled novel EPO-derived peptide entered the cerebrospinal fluid across the blood-brain barrier.
1. Anesthetizing the mouse with 4% chloral hydrate;
2. Wiping the nape of the neck with wet gauze, and cutting off the dorsal set to expose the skin; making a sagittal incision in the skin below the occipital bone, and separating the skin from both sides to expand the visual field;
3. Letting the mouse prone, placing the body at an angle of 135° to the head and fixing the head on the stereotactic instrument; bluntly separating the subcutaneous tissue and muscle along the midline under the stereo microscope; at this angle, the dura mater and spinal cord can be clearly seen in the incision below the occipital bone (The main features are a clear white appearance, a cyclical pulsation of the spinal cord blood vessels and an adjacent cerebrospinal fluid area);
4. Setting the heat value as 300 and the pressure value as 330 in the needle puller, pulling the capillary glass tube into a pointed capillary tube, and trimming the tip of the pointed capillary tube with scissors to make the blunt tip have a diameter of 0.5 mm;
5. […]

[7] = 50 ug/kg i.p. once a day, 3th day
[8] = 50 ug/kg i.p. once a day, 7th day
[9] = 50 ug/kg i.p. once a day, 13th day

| Compound | LDH release rate versus control group [1] | cell survival rate (MTT) versus control group [1] | LDH release rate versus control group [2] | cell survival rate (MTT) versus control group [2] | seizure latency [3] [min] | seizure latency versus saline and solvent groups [3] | cerebral infarction volume versus control group [4] | neurobehavioral scores versus control group [4] | RBC generation (erythrocyte counts) [5, 7] [M/μL] | RBC generation (erythrocyte counts) [5, 8] [M/μL] | RBC generation (erythrocyte counts) [5, 9] [M/μL] | red blood cell counts compared with the other groups (Saline, ACN+Milliq) [5] | further results |
| --- | --- | --- | --- | --- | --- | --- | --- | --- | --- | --- | --- | --- | --- |
| Erythropoietin [EPO] | lower than that in the control group | higher than that in the control group | lower than that in the control group | higher than that in the control group | 41.16 ± 3.52 | longer than those of the physiological saline group and the solvent group | lower than those of the control group | lower than those of the control group | 9.14 ± 0.56 | 12.79 ± 0.24 | 11.15 ± 0.23 | significantly higher than that of other groups | – |
| CCC(NC(=O)C(CC(C)C)NC(=O)CNC(=O)C(CO)NC(=O)C(NC(=O)C(C)NC(=O)C(CC(=O)O)NC(=O)C(NC(=O)C(Cc1cnc[nH]1)NC(=O)C(CC(C)C)NC(=O)C(CCC(N)=O)NC(=O)C(CC(C)C)NC(=O)C1CCCN1C(=O)C(CO)NC(=O)C(CO)NC(=O)C(CC(N)=O)NC(=O)C(NC(=O)C(CC(C)C)NC(=O)C(CC(C)C)NC(=O)C(C)NC(=O)C(CCC(N)=O)NC(=O)CNC(=O)C(CCCNC(=N)N)NC(=O)C(CC(C)C)NC(=O)C(NC(=O)C(C)NC(=O)C(CCC(=O)O)NC(=O)C(CO)NC(=O)CCCCC1SCC2NC(=O)NC21)C(C)C)C(C)C)C(C)C)C(C)C)C(=O)NC(CO)C(=O)NC(CC(C)O)C(=O)NC(C(=O)NC(C(=O)NC(CC(C)C)C(=O)NC(CC(C)C)C(=O)NC(CCCNC(=N)N)C(=O)NC(C)C(=O)NC(CC(C)C)C(=O)O)C(C)O)C(C)O (stereo not drawn) [T3] (X1-SEAVLRGQALLVNSSPLQLHVDAVSGL[Abu]S[X2]TTLLRAL-OH; configuration not given here) | lower than that in the control group | higher than that in the control group | lower than that in the control group | higher than that in the control group | 40.58 ± 3.67 | longer than those of the physiological saline group and the solvent group | lower than those of the control group | lower than those of the control group | 9.29 ± 0.13 | 8.75 ± 0.36 | 6.77 ± 0.18 | no significant increase | blood-brain barrier penetration [6]: could enter the cerebrospinal fluid across the blood-brain barrier; loss of neurons in the hippocampus ([3]; animals with nerve damage (epilepsy model), summary statement): reduce the loss of neurons in the hippocampus; Neurobehavioral scores ([4]; column head: Ctrl + T3 group): 6.3 ± 0.7; Cerebral infarction volumes ([4]; column head: ctrl + T3 group): 40.54 ± 5.78 mm^3; Cerebral infarction volumes ([4]; column head:): 37.72 ± 9.20 mm^3; Neurobehavioral scores ([4]; column head:): 5.7 ± 0.3; RBC generation (erythrocyte counts) ([5]; 250 ug/kg i.p. once a day, 3th day): 8.16 ± 0.28 M/μL; RBC generation (erythrocyte counts) ([5]; 250 ug/kg i.p. once a day, 7th day): 9.56 ± 0.54 M/μL; RBC generation (erythrocyte counts) ([5]; 250 ug/kg i.p. once a day, 13th day): 6.52 ± 0.12 M/μL |

From US11479592B2, “Erythropoietin-derived peptide, preparation method and use thereof” (Zhongshan Hospital, Fudan University, priority 2017, dated 2022)
